Read-outs that look alike come from different tables or passages of the source.
What was measured:
[1] = test system: HeLa cervix carcinoma cells; test: Cytostatic assay, HeLa; type: cell-based, human; details: Homo sapiens; Table 3; read-out: Cytostatic activity (μM) Hela
Protocol: (§1) To each well of a 96-well microtiter plate were added 5-7.5×10^4 cells and a given amount of the test compound. The cells were allowed to proliferate for 48 h to 96 h (depending on the nature of the cell line) at 37° C. in a humidified CO2-controlled atmosphere. At the end of the incubation period, the cells were counted in a Coulter Counter (Coulter Electronics Ltd, Harpenden Herts, United Kingdom).

BPH-1 (UZ) = test: Cytostatic assay, BPH-1 (UZ); type: cell-based; details: Homo sapiens, Table 4
Protocol: as §1

MT-2 cells = test: Cytostatic assay, MT-2; type: cell-based; details: Homo sapiens, MT2; Table 2
Protocol: as §1

L1210 cells = test: Cytostatic assay, L1210; type: cell-based; details: Mus musculus, Table 2
Protocol: as §1

[2] = test system: Raji, human B-lymphoma cells; test: Cytostatic assay, Raji; type: cell-based; details: Table 2
Protocol: as §1

[3] = test system: HL60, human leukemia cells; test: Cytostatic assay, HL-60; type: cell-based; details: Table 2
Protocol: as §1

[4] = test system: MCF-7 mammary carcinoma cells; test: Cytostatic assay, MCF-7; type: cell-based; details: Homo sapiens, MCF7; Table 3
Protocol: as §1

[5] = test system: Caki-2 kidney carcinoma cells; test: Cytostatic assay, Caki-2; type: cell-based; details: Homo sapiens, Table 3
Protocol: as §1

[6] = test system: PC3 (rega) prostate cancer cells; test: Cytostatic assay, PC3 (rega); type: cell-based; details: Table 4
Protocol: as §1

[7] = test system: PC-3 (UZ) prostate cancer cells; test: Cytostatic assay, PC-3 (UZ); type: cell-based; details: Table 4
Protocol: as §1

[8] = test system: DU145 (UZ) prostate cancer cells; test: Cytostatic assay, DU145 (UZ); type: cell-based; details: Homo sapiens, DU-145; Table 4
Protocol: as §1

[9] = test system: broad variety of tumor cell lines; test: Cytostatic assays, summary over the panel of cell lines (Tables 2-4); type: cell-based; details: range over the cell lines of Tables 2-4; read-out: IC50 range (antiproliferative activity)
Protocol: as §1

MT-4 cells = test: Cytostatic assay, MT-4; type: cell-based; details: Homo sapiens, MT4; Table 2
Protocol: as §1

CEM cells = test: Cytostatic assay, CEM; type: cell-based; details: Homo sapiens, CCRF-CEM
Protocol: as §1

HepG2C3A hepatoma cells = test: Cytostatic assay, HepG2C3A; type: cell-based; details: Homo sapiens, HepG2/C3A; Table 4
Protocol: as §1

[10] = test system: FM3A mammary carcinoma cells; test: Cytostatic assay, FM3A; type: cell-based, murine; details: Mus musculus, Table 3
Protocol: as §1

[11] = test system: U937, human monocytic cells; test: Cytostatic assay, U937; type: cell-based; details: U-937, Table 2
Protocol: as §1

[12] = test system: LNCaP (UZ) prostate cancer cells; test: Cytostatic assay, LNCaP (UZ); type: cell-based; details: Homo sapiens, Table 4
Protocol: as §1

PLC/PRF/5 hepatoma cells = test: Cytostatic assay, PLC/PRF/5; type: cell-based; details: Homo sapiens, Table 4
Protocol: as §1

C8166 cells = test: Cytostatic assay, C8166; type: cell-based; details: Homo sapiens, Table 2
Protocol: as §1

[13] = test system: BAEC aortic endothelial cells; test: Cytostatic assay, BAEC; type: cell-based, bovine; details: Bos taurus, Table 3
Protocol: as §1

[14] = test system: PNT1A (UZ) prostate cells; test: Cytostatic assay, PNT1A (UZ); type: cell-based; details: Homo sapiens, Table 4
Protocol: as §1

[15] = test system: 293T embryonic kidney cells; test: Cytostatic assay, 293T; type: cell-based; details: Homo sapiens, HEK-293T; Table 3
Protocol: as §1

[16] = test system: Caki-1 kidney carcinoma cells; test: Cytostatic assay, Caki-1; type: cell-based; details: Homo sapiens, Table 3
Protocol: as §1

Sup T1 cells = test: Cytostatic assay, Sup T1; type: cell-based; details: Homo sapiens, Table 2, read-out: Cytostatic activity (μM) Sup T 1
Protocol: as §1

[17] = test system: THP-1, human monocytic cells; test: Cytostatic assay, THP-1; type: cell-based; details: Table 2
Protocol: as §1

[18] = test system: HT29 colorectal carcinoma cells; test: Cytostatic assay, HT29; type: cell-based; details: Homo sapiens, HT-29; Table 3
Protocol: as §1

Huh-7 hepatoma cells = test: Cytostatic assay, Huh-7; type: cell-based; details: Homo sapiens, Table 4
Protocol: as §1

[19] = test system: 22Rv1 (UZ) prostate cancer cells; test: Cytostatic assay, 22Rv1 (UZ); type: cell-based; details: Homo sapiens, Table 4
Protocol: as §1

HUT-78 cells = test: Cytostatic assay, HUT-78; type: cell-based; details: Homo sapiens, HuT78; Table 2
Protocol: as §1

[20] = test system: OST TK- osteosarcoma cells; test: Cytostatic assay, OST TK-; type: cell-based; details: Homo sapiens; Table 3
Protocol: as §1

U87 glioma cells = test: Cytostatic assay, U87; type: cell-based; details: Homo sapiens, U-87 MG; Table 3
Protocol: as §1

Molt4/C8 cells = test: Cytostatic assay, Molt4/C8; type: cell-based; details: Table 2
Protocol: as §1

[21] = test system: HEL embryonic lung fibroblast cells; test: Cytostatic assay, HEL; type: cell-based; details: Homo sapiens, Table 3
Protocol: as §1

[22] = Table 1a, read-out: IC50 μM (CEM)
[23] = Table 2, read-out: Cytostatic activity (μM) CEM

COc1ccc(-c2cc(C#N)c(N)s2)cc1 [TR582, 2-Amino-5-(4-methoxy-phenyl)-thiophene-3-carbonitrile]
IC50 [1]: 168 ± 15 µM
IC50 (BPH-1 (UZ)): > 100 µM
IC50 (MT-2 cells): ≥ 161 µM
IC50 (L1210 cells): 230 ± 65 µM
IC50 [2]: > 100 µM
IC50 [3]: ≥ 135 µM
IC50 [4]: 117 ± 58 µM
IC50 [5]: ≥ 200 µM
IC50 [6]: 69 ± 21 µM
IC50 [7]: > 100 µM
IC50 [8]: > 100 µM
IC50 [9]: 24 to 320 µM
IC50 (MT-4 cells): 76 ± 35 µM
IC50 (CEM cells; [22]): 233 µM
IC50 (CEM cells; [23]): 233 ± 29 µM
IC50 (HepG2C3A hepatoma cells): ≥ 100 µM
IC50 [10]: 320 ± 14 µM
IC50 [11]: > 200 µM
IC50 [12]: 4.8 ± 3.4 µM
IC50 (PLC/PRF/5 hepatoma cells): 49 ± 3.5 µM
IC50 (C8166 cells): > 200 µM
IC50 [13]: > 100 µM
IC50 [14]: > 100 µM
IC50 [15]: > 100 µM
IC50 [16]: 19 ± 18 µM
IC50 (Sup T1 cells): > 200 µM
IC50 [17]: 124 ± 25 µM
IC50 [18]: > 100 µM
IC50 (Huh-7 hepatoma cells): > 100 µM
IC50 [19]: 34 ± 26 µM
IC50 (HUT-78 cells): > 200 µM
IC50 [20]: 134 ± 69 µM
IC50 (U87 glioma cells): > 100 µM
IC50 (Molt4/C8 cells): 275 ± 89 µM
IC50 [21]: 33 ± 0.71 µM

N#Cc1cc(CCc2ccccc2)sc1N [TR588, 2-Amino-5-phenethyl-thiophene-3-carbonitrile]
IC50 [1]: 27 ± 28 µM
IC50 (BPH-1 (UZ)): ≥ 100 µM
IC50 (MT-2 cells): 6.65 ± 1.9 µM
IC50 (L1210 cells): 40 ± 6 µM
IC50 [2]: 39 ± 21 µM
IC50 [3]: 3.9 ± 0.5 µM
IC50 [4]: 26 ± 2.1 µM
IC50 [5]: 78 ± 69 µM
IC50 [6]: 3.1 ± 1.2 µM
IC50 [7]: 11 ± 4.2 µM
IC50 [8]: 24 ± 4.9 µM
IC50 (MT-4 cells): 75 ± 35 µM
IC50 (CEM cells; [22]): 47 µM
IC50 (CEM cells; [23]): 47 ± 25 µM
IC50 (HepG2C3A hepatoma cells): 64 ± 52 µM
IC50 [10]: 67 ± 23 µM
IC50 [11]: 42 ± 2.1 µM
IC50 [12]: 5.3 ± 4.3 µM
IC50 (PLC/PRF/5 hepatoma cells): 41 ± 3.5 µM
IC50 (C8166 cells): ≥ 200 µM
IC50 [13]: 45 ± 4.9 µM
IC50 [14]: 66 ± 31 µM
IC50 [15]: 34 ± 14 µM
IC50 [16]: 1.3 ± 0.4 µM
IC50 (Sup T1 cells): > 200 µM
IC50 [17]: 8.4 ± 0.28 µM
IC50 [18]: 66 ± 6.4 µM
IC50 (Huh-7 hepatoma cells): 21 ± 7.1 µM
IC50 [19]: 61 ± 34 µM
IC50 (HUT-78 cells): 18 ± 7.1 µM
IC50 [20]: 27 ± 18 µM
IC50 (U87 glioma cells): 46 ± 7.8 µM
IC50 (Molt4/C8 cells): 8.5 ± 3.4 µM
IC50 [21]: 30 ± 6.4 µM

COC(=O)c1cc(-c2ccc(OC)cc2)sc1N [TR572, 2-Amino-5-(4-methoxy-phenyl)-thiophene-3-carboxylic acid methyl ester]
IC50 [1]: 63 ± 19 µM
IC50 (BPH-1 (UZ)): 58 ± 6.4 µM
IC50 (MT-2 cells): 12 ± 1.4 µM
IC50 (L1210 cells): 60 ± 12 µM
IC50 [2]: 61 ± 18 µM
IC50 [3]: 11 ± 1.4 µM
IC50 [4]: 119 ± 52 µM
IC50 [5]: 9 ± 1.4 µM
IC50 [6]: 5.5 ± 4 µM
IC50 [7]: 4.3 ± 1.7 µM
IC50 [8]: 18 ± 9.2 µM
IC50 (MT-4 cells): 40 ± 12 µM
IC50 (CEM cells; [22]): 74 µM
IC50 (CEM cells; [23]): 74 ± 3.5 µM
IC50 (HepG2C3A hepatoma cells): 28 ± 8.5 µM
IC50 [10]: 97 ± 32 µM
IC50 [11]: 63 ± 7.1 µM
IC50 [12]: 1.1 ± 0.84 µM
IC50 (PLC/PRF/5 hepatoma cells): 42 ± 2.1 µM
IC50 (C8166 cells): 179 ± 18 µM
IC50 [13]: 47 ± 3.5 µM
IC50 [14]: 53 ± 2.1 µM
IC50 [15]: > 100 µM
IC50 [16]: 4.4 ± 1.9 µM
IC50 (Sup T1 cells): 55 ± 30 µM
IC50 [17]: 21 ± 0.7 µM
IC50 [18]: 42 ± 3.5 µM
IC50 (Huh-7 hepatoma cells): 42 ± 7.8 µM
IC50 [19]: 69 ± 44 µM
IC50 (HUT-78 cells): 26 ± 17 µM
IC50 [20]: 25 ± 2.1 µM
IC50 (U87 glioma cells): 71 ± 3.5 µM
IC50 (Molt4/C8 cells): 44 ± 9 µM
IC50 [21]: 34 ± 20 µM

From patent US9278958B2, “Anti-cancer compounds” (KATHOLIEKE UNIVERSITEIT LEUVEN, priority 2012, dated 2016)
